Measured values published in patent US20260285850A1, “SUBSTITUTED OXAZOLIDINONES AND IMIDAZOLINONES AS HERBICIDES” (FMC CORPORATION, priority 2023, published 2026).

Key:
Assay type in all cases: in vivo
[1] = system: barnyardgrass (Echinochloa crusgalli); assay: Test B flooded paddy test, visual plant response rating 0-100; settings: 250 g ai/ha, Flood, applied to paddy water, evaluated after 13 days
Method in brief: (§1)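 2-leaf plants; flood 3 cm over soil; compound dosed into paddy water; depth kept constant; greenhouse 13 d; visual scoring vs controls. Dash = no result.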

[2] = system: sedge, umbrella (small-flower umbrella sedge, Cyperus difformis); assay: as above; settings: 250 g ai/ha, Flood, applied to paddy water, evaluated after 13 days
Method in brief: as §1

[3] = system: ducksalad (Heteranthera limosa); assay: as above; settings: 250 g ai/ha, Flood, applied to paddy water, evaluated after 13 days
Method in brief: as §1

rice (Oryza sativa) = assay: as above; settings: 250 g ai/ha, Flood, applied to paddy water, evaluated after 13 days
Method in brief: as §1

[4] = system: blackgrass (Alopecurus myosuroides); assay: Test A preemergence soil spray, visual injury rating 0-100; settings: 10 days
Method in brief: (§2)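 Grow plants in loam soil blended with sand. Apply formulated compound (non-phytotoxic solvent, surfactant) as a directed soil spray before emergence, or to plants at the one- to two-leaf stage after emergence. Hold in greenhouse 10 days, then rate injury visually versus untreated controls on a 0-100 scale.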

[5] = system: ryegrass, Italian (italian ryegrass, Lolium multiflorum); assay: as above; settings: 10 days
Method in brief: as §2

[6] = system: barnyardgrass (Echinochloa crus-galli); assay: as above; settings: 10 days
Method in brief: as §2

[7] = system: ragweed (common ragweed, Ambrosia artemisiifolia); assay: as above; settings: 10 days
Method in brief: as §2

corn (Zea mays) [8] = assay: as above; settings: 10 days
Method in brief: as §2

soybean (Glycine max) [9] = assay: as above; settings: 10 days
Method in brief: as §2

[10] = system: green foxtail (Setaria viridis); assay: as above; settings: 10 days
Method in brief: as §2

[11] = system: oat, wild (wild oat, Avena fatua); assay: as above; settings: 10 days
Method in brief: as §2

[12] = system: wheat (Triticum aestivum); assay: as above; settings: 10 days
Method in brief: as §2

[13] = system: palmer (palmer amaranth, palmer pigweed, Amaranthus palmeri); assay: as above; settings: 10 days
Method in brief: as §2

kochia (Bassia scoparia) [14] = assay: as above; settings: 10 days
Method in brief: as §2

[15] = system: galium (catchweed bedstraw, Galium aparine); assay: Test A postemergence application, visual injury rating 0-100
Method in brief: as §2

[16] = system: blackgrass (Alopecurus myosuroides); assay: as above
Method in brief: as §2

[17] = system: ryegrass, Italian (italian ryegrass, Lolium multiflorum); assay: as above
Method in brief: as §2

[18] = system: barnyardgrass (Echinochloa crus-galli); assay: as above
Method in brief: as §2

[19] = system: ragweed (common ragweed, Ambrosia artemisiifolia); assay: as above
Method in brief: as §2

corn (Zea mays) [20] = assay: as above
Method in brief: as §2

soybean (Glycine max) [21] = assay: as above
Method in brief: as §2

[22] = system: green foxtail (Setaria viridis); assay: as above
Method in brief: as §2

[23] = system: oat, wild (wild oat, Avena fatua); assay: as above
Method in brief: as §2

[24] = system: horseweed (Erigeron canadensis); assay: as above
Method in brief: as §2

[25] = system: wheat (Triticum aestivum); assay: as above
Method in brief: as §2

[26] = system: palmer (palmer amaranth, palmer pigweed, Amaranthus palmeri); assay: as above
Method in brief: as §2

kochia (Bassia scoparia) [27] = assay: as above
Method in brief: as §2

[28] = 62 g ai/ha, 0 = no effect, 100 = complete control
[29] = 62 g ai/ha, postemergence, 10 days, 0 = no effect, 100 = complete control
[30] = Postemergence, 16 g ai/ha, greenhouse 10 days, 0 no effect, 100 complete control

SMILES: CC1(C(=O)NC2CC=C(C(=O)OCC(F)(F)F)C2)CN(c2cc(Cl)cc(Cl)c2)C(=O)O1 (stereo not shown) [Compound 96]
- Plant response rating, Barnyardgrass (0 to 100 scale, 0 is no effect and 100 is complete control) [1]: 95
- Plant response rating, Sedge, Umbrella (0 to 100 scale, 0 is no effect and 100 is complete control) [2]: 95
- Plant response rating, Ducksalad (0 to 100 scale, 0 is no effect and 100 is complete control) [3]: 70
- Plant response rating, Rice (0 to 100 scale, 0 is no effect and 100 is complete control) (rice (Oryza sativa)): 25
- Blackgrass plant response rating ([4]; 16 g ai/ha, 0 to 100 scale): 0
- Blackgrass plant response rating (0-100) [4, 28]: 0
- Ryegrass, Italian plant response rating ([5]; 16 g ai/ha, 0 to 100 scale): 20
- Ryegrass, Italian plant response rating (0-100) [5, 28]: 60
- Barnyardgrass plant response rating ([6]; 16 g ai/ha, 0 to 100 scale): 10
- Barnyardgrass plant response rating (0-100) [6, 28]: 60
- Ragweed plant response rating ([7]; 16 g ai/ha, 0 to 100 scale): 0
- Ragweed plant response rating (0-100) [7, 28]: 0
- Corn plant response rating (corn (Zea mays) [8]; 16 g ai/ha, 0 to 100 scale): 0
- Corn plant response rating (0-100) (corn (Zea mays) [8]; [28]): 40
- Soybean plant response rating (soybean (Glycine max) [9]; 16 g ai/ha, 0 to 100 scale): 10
- Soybean plant response rating (0-100) (soybean (Glycine max) [9]; [28]): 30
- Foxtail, Green plant response rating ([10]; 16 g ai/ha, 0 to 100 scale): 10
- Foxtail, Green plant response rating (0-100) [10, 28]: 90
- Oat, Wild plant response rating ([11]; 16 g ai/ha, 0 to 100 scale): 0
- Oat, Wild plant response rating (0-100) [11, 28]: 20
- Wheat plant response rating ([12]; 16 g ai/ha, 0 to 100 scale): 0
- Wheat plant response rating (0-100) [12, 28]: 0
- Pigweed, Palmer plant response rating ([13]; 16 g ai/ha, 0 to 100 scale): 100
- Pigweed, Palmer plant response rating (0-100) [13, 28]: 90
- Kochia plant response rating (kochia (Bassia scoparia) [14]; 16 g ai/ha, 0 to 100 scale): 0
- Kochia plant response rating (0-100) (kochia (Bassia scoparia) [14]; [28]): 0
- Galium plant response rating (0-100) [15, 29]: 90
- Galium plant response rating (0 to 100 scale) [15, 30]: 70
- Blackgrass plant response rating (0-100) [16, 29]: 90
- Blackgrass plant response rating (0 to 100 scale) [16, 30]: 80
- Ryegrass, Italian plant response rating (0-100) [17, 29]: 90
- Ryegrass, Italian plant response rating (0 to 100 scale) [17, 30]: 80
- Barnyardgrass plant response rating (0-100) [18, 29]: 100
- Barnyardgrass plant response rating (0 to 100 scale) [18, 30]: 100
- Ragweed plant response rating (0-100) [19, 29]: 60
- Ragweed plant response rating (0 to 100 scale) [19, 30]: 40
- Corn plant response rating (0-100) (corn (Zea mays) [20]; [29]): 100
- Corn plant response rating (0 to 100 scale) (corn (Zea mays) [20]; [30]): 100
- Soybean plant response rating (0-100) (soybean (Glycine max) [21]; [29]): 80
- Soybean plant response rating (0 to 100 scale) (soybean (Glycine max) [21]; [30]): 80
- Foxtail, Green plant response rating (0-100) [22, 29]: 90
- Foxtail, Green plant response rating (0 to 100 scale) [22, 30]: 90
- Oat, Wild plant response rating (0-100) [23, 29]: 80
- Oat, Wild plant response rating (0 to 100 scale) [23, 30]: 50
- Horseweed plant response rating (0-100) [24, 29]: 70
- Horseweed plant response rating (0 to 100 scale) [24, 30]: 40
- Wheat plant response rating (0-100) [25, 29]: 90
- Wheat plant response rating (0 to 100 scale) [25, 30]: 30
- Pigweed, Palmer plant response rating (0-100) [26, 29]: 90
- Pigweed, Palmer plant response rating (0 to 100 scale) [26, 30]: 70
- Kochia plant response rating (0-100) (kochia (Bassia scoparia) [27]; [29]): 80
- Kochia plant response rating (0 to 100 scale) (kochia (Bassia scoparia) [27]; [30]): 70
